Among the data in PubChem BioAssay AID1259427 (Fisher Drug Discovery Resource Center, 2018) are EC50 values, retold here.

Active and inactive are the calls of the source.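 The calls were made as follows: active = EC50 at or below a set limit, with no effect in the paired counter-screen assay; inactive = the rest.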

The target in this assay is Aedes aegypti neuropeptide Y-like receptor 7 (NPYLR7). The assay can be described thus: agonists of mosquito NPYLR7 receptor, confirmation, cell-based, Aedes aegypti, hit validation, mosquito biting behavior (AID 1259427).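 Also: potency of agonists that activate the receptor and raise the calcium signal.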 The note with it: HEK293T NPYLR7/Galpha15/GCaMP6s, calcium fluorescence.

As a reminder, the EC50 is the concentration that produces a half-maximal response. `CCOC(=O)C1CCN(C(=O)CC(c2cccc(C(F)(F)F)c2)c2c[nH]c3c(CC)cccc23)CC1` (configuration not stated): the EC50 is > 20 µM (inactive).

`COc1cc(/C=C2\SC(=S)N(c3cccc(C(=O)O)c3)C2=O)ccc1O`: the EC50 is > 20 µM (inactive).

For `CN1C(=S)N(CCCN2CCOCC2)C(=O)/C1=C/c1ccc(N(C)C)cc1`, the EC50 is > 20 µM (inactive).

Take `C=CCNc1ccc2c3c(cccc13)C(=O)N(c1ccccc1)C2=O`: the EC50 entry was “inactive”.

For the compound `CN=c1nc(-c2ccccc2)n(-c2ccccc2)s1`, the EC50 is 19.9 µM.

For the compound `CCN1/C(=C/C2=CC(=O)CC(C)(C)C2)Sc2ccccc21`, the EC50 entry was “inactive”.

With `CNC(=O)c1cnc(/C=C/c2csc(-c3ccsc3)n2)[nH]c1=O`, the EC50 is > 20 µM (inactive).

As for `CCOC(=O)c1nc2ccccc2nc1N1CCN(C(=O)N2CCOCC2)CC1`, the EC50 is > 20 µM (inactive).

Consider `CCc1nc(N=C(N)N)nc2cc(C)ccc12`, for which the EC50 is 7.66 µM.

Regarding `COc1ccc(Cl)cc1NC(=O)/C(C#N)=C/c1coc2ccc(C)cc2c1=O`, the EC50 is > 20 µM (inactive).

Consider `Cc1cc2c(c(-c3ccc4c(cnn4C)c3)c1)OC(CN)C2` (configuration not stated), for which the EC50 was > 20 µM (inactive).

For `O=C1C(=Cc2ccc(OC(F)F)cc2OC(F)F)Oc2cc(O)ccc21`, the EC50 is > 20 µM (inactive).

As to `Cc1cccc(Oc2nc3ccccn3c(=O)c2/C=C(\C#N)c2nc3ccccc3s2)c1`, the EC50 is > 20 µM (inactive).

With `COc1cc(C(=O)N2CCOC(c3ccccc3)C2)cc(OC)c1C` (configuration not stated), the EC50 is > 20 µM (inactive).

For the compound `CCN(CC)c1ccc2cc(C(N)=O)/c(=N\NC(N)=S)oc2c1`, the EC50 was < 0.039 µM (inactive).

As for `Oc1ccc(-c2onc3ccc(Cl)cc23)cc1`, the EC50 is > 20 µM (inactive).

`CCCc1ccccc1N1C(=O)CSC1c1ccc(NC(=O)CCl)cc1` (configuration not stated): the EC50 is > 20 µM (inactive).

For `Cc1ccc(N2C(=O)NC(=O)/C(=C\c3cccs3)C2=O)cc1`, the EC50 was > 20 µM (inactive).

Take `CC(C)NCC(O)c1ccc(O)c(O)c1` (configuration not stated): the EC50 was > 20 µM (inactive).

Turning to `COc1ccc(N2CCN(c3cc(C(F)(F)F)nc(SCc4cccc(C(=O)NCc5ccccn5)c4)n3)CC2)cc1`, the EC50 is > 20 µM (inactive).

In the case of `CCOC(=O)N1CCN(c2ccc(/C=C(\C#N)c3nc4ccccc4[nH]3)o2)CC1`, the EC50 was > 20 µM (inactive).

For `C[C@H](O)C(=O)C1=Nc2c(nc(N)[nH]c2=O)NC1`, the EC50 was > 20 µM (inactive).

Regarding `O=C1/C(=C/c2cccc(F)c2)Oc2c1ccc(O)c2CN1CCN(CCO)CC1`, the EC50 is > 20 µM (inactive).

As to `N#CC(C#N)=C1C=C2C=C(N3CCc4ccccc4C3)CCC2CC1` (configuration not stated), the EC50 was > 20 µM (inactive).

Take `O=C(CSc1cn(CC(=O)N2CCCCCC2)c2ccccc12)NC1CCCC1`: the EC50 was > 20 µM (inactive).

Regarding `N#CC(C#N)=C1C=C2C=C(N3CCCC3)CCC2CC1` (configuration not stated), the EC50 was < 0.039 µM (inactive).

Consider `O=c1oc2c(CN3CCN(CCO)CC3)c(O)ccc2cc1-c1nc2ccccc2s1`, for which the EC50 is < 0.039 µM (inactive).

For `CCOc1cc(/C=C2\SC(=S)N(NC(=O)c3ccccc3O)C2=O)ccc1O`, the EC50 was > 20 µM (inactive).

Turning to `N#CC(C#N)=C1C=C2C=C(N3CCCCC3)CCC2CC1` (configuration not stated), the EC50 was < 0.039 µM (inactive).

As for `COc1ccc2c(c1)OCC(C=C(C#N)S(=O)(=O)c1ccc(Br)cc1)=C2`, the EC50 was > 20 µM (inactive).

On to `Cc1ccc(CN(Cc2ccc(F)cc2)C(=O)CNCCN2CCOCC2)s1`, for which the EC50 is > 20 µM (inactive).

For `N#Cc1cccc(C(=O)N2CCN(C(c3ccccc3)c3ccc(Br)cc3)CC2)c1` (configuration not stated), the EC50 was > 20 µM (inactive).

`CCOC=C(C#N)c1nc(C)cs1`: the EC50 result was “inactive”.

In the case of `N#CC(C#N)=C1C=C2C=C(N3CCCCCC3)CCC2CC1` (configuration not stated), the EC50 is < 0.039 µM (inactive).

On to `CCN1CCN(C(=O)c2ccc(Cn3ccsc3=NC(=O)c3ccc(OC)c(OC)c3)o2)CC1`, for which the EC50 is 14.3 µM.

For `FC(F)(F)c1cc(-c2cccs2)nc2ncnn12`, the EC50 is > 20 µM (inactive).

Regarding `CCOc1ccc(/C=C2N=C(/C=C/c3ccccc3)OC/2=O)cc1`, the EC50 was > 20 µM (inactive).
